Measured values reported in patent US20250270159A1, “1-(CYCLOBUTANEMETHYLIDENE)-2, 4, 5-TRIMETHOXYBENZENE COMPOUND AND PREPARATION METHOD AND USE THEREOF” (CHENGDU XINRUI TAIKANG TECHNOLOGY CO., LTD., priority 2023, published 2025).

What was measured:
[1] = tested on: rat model of lithium-pilocarpine-induced epilepsy; experiment: Survival of SE model rats after drug intervention in the acute phase; format: in vivo, Sprague Dawley (SD) rats; conditions: 50 mg/kg ip; Logrank test P<0.05 vs model; FIG. 1
Description: Methylscopolamine bromide, lithium chloride, and pilocarpine were weighed, and experimental drugs were dissolved to working concentrations (100 mg/mL of lithium chloride solution, 1 mg/mLof methylscopolamine bromide solution, and 20 mg/mL of pilocarpine solution) with 0.9% saline. Rats were injected intraperitoneally with lithium chloride (a dose of 127 mg/kg), and 18-20 h later, scopolamine methylbromide (a dose of 1 mg/kg) was injected intraperitoneally. […] Thereafter, an additional dose of 10 mg/kg pilocarpine was injected intraperitoneally every 30 min until the onset of a grade IV or higher status epilepticus (SE)-like seizure without significant intermittent intervals, with a maximum dose of 60 mg/kg.
The rats with successful modeling were randomly divided into three groups, namely a model group, a CTMB group, and a sodium valproate (VPA) group. Administration was carried out after 1 h of SE onset, with a blank emulsion given by intraperitoneal injection in the model group, a CTMB emulsion injection at a dose of 50 mg/kg given by intraperitoneal injection in the CTMB group, and sodium valproate at a dose of 300 mg/kg given by oral gavage in the VPA group. […]
The differences between the survival curves of the rats in each group were analyzed by a Logrank test.

GABA = GABA content in brain of TBI rats; format: in vivo, SD rats; conditions: 30 mg/kg ip, 7 d continuous administration, FIG. 4
Description: The experimental grouping and drug administration plan were as follows. • Sham operation group (Group P): saline was given with the same volume as in the CTMB group; • Model group (T group): a blank emulsion was given with the same volume as in the CTMB group; • Medium dose group (Group M): a dose of 30 mg/kg of CTMB emulsion injection was given.
The experimental grouping and drug administration plan were the same as the test 3. After 7 d of continuous administration to each group, the rats were deeply anesthetized, the heads were severed and the brains were removed, about 60-120 mg of hemispheric cortex on the blood side was taken out, 10 times volume of ice-cold centrifugation buffer used for biochemical assay was added, homogenized for 10 min under an ice bath, and then centrifuged for 30 min at 4° C. and 14000 rpm/min. The supernatants were taken to test the GLT-1 and GABA content according to the instructions of GLT-1 and GABA content assay kit, respectively. Glutamate transporter 1 (GLT-1) is an important glutamate transporter in the brain that transports extracellular glutamate to the intracellular compartment. γ-aminobutyric acid (GABA) is an important inhibitory neurotransmitter, and a dramatic increase in the concentration of extracellular glutamate in pathological conditions leads to neuronal hyperexcitability toxicity.

[2] = tested on: Tyrosine hydroxylase (TH) protein expression; experiment: TH protein expression by immunohistochemistry in substantia nigra of PD mice; format: in vivo, C57 mice; conditions: Group D, CTMB 20 mg/kg ip, after 4 weeks of administration
Description: (§1) The mice were randomly divided into a sham operation group (group S, given a blank emulsion with a volume equal to that of the administered group), a model group (group M, given a blank emulsion with a volume equal to that of the administered group), a CTMB group (20 mg/kg, group D), and a levodopa group (levodopa: benserazide hydrochloride=4:1, 12 mg/kg, group L), each group included 10-12 mice, and all of them were administered intraperitoneally.
After completing the evaluation of motor function after 4 weeks of drug administration, the mice were deeply anesthetized, perfused with 20 mL of saline and 20 mL of 4% paraformaldehyde via the heart, and the brains were rapidly severed and extracted from the head, which were then preserved and fixed in 4% paraformaldehyde for 72 h after removal, and then embedded with paraffin to prepare the slices with a thickness of 4 μm for subsequent pathological and histological studies.
Tyrosine hydroxylase (TH) protein expression was detected by immunohistochemistry. […]

[3] = tested on: superoxide dismutase (SOD); experiment: SOD activity in striatum of PD mice; format: in vivo, C57 mice; conditions: Group D, CTMB 20 mg/kg ip, after 4 weeks, injured side
Description: as §1
Malondialdehyde (MDA) is a commonly used indicator of membrane lipid peroxidation, reduced glutathione (GSH) is one of the most commonly used non-enzymatic indicators of antioxidant substances, and superoxide dismutase (SOD) is a common indicator of antioxidant enzymes. After completing the evaluation of motor function after 4 weeks of drug administration, the mice were deeply anesthetized and perfused with 20 mL of saline via the heart. The brain was rapidly severed to isolate the striatal region on the injured side (right side), weighed, and placed into a 1.5 mL EP tube, and homogenized at low temperature by adding phosphate-buffered saline (PBS) at the ratio of a weight of animal tissues (g) to a volume of homogenization medium (mL) of 1:9. […]

How did the “survival rate of the SE model rats” value [1] turn out when COc1cc(OC)c(OC)cc1C=C1CCC1 [CTMB, 1-(cyclobutylidenemethyl)-2,4,5-trimethoxybenzene] was run?
The value was “significantly increases the survival rate”.

What about the “GABA content in brain” value (GABA) of the same molecule?
Its value is “increases the content of GABA”.

What about the “TH-positive neurons (a percentage of TH-positive neurons to uninjured side, %)” value [2] of the same molecule?
The value was 39.9 ± 12.1^###,***^, && %.

What about the SOD [3] of the same molecule?
The SOD was 80.24 ± 10.46 U/mg protein.
